Here are results for 1 molecule from US8080517B2, “Cell-permeable peptide inhibitors of the JNK signal transduction pathway” (Xigen SA, priority 2005, dated 2011).

Where a SMILES comes first, the peptide text is derived from it. [ ]: non-standard residue; d: D form.

One data set relates to βTC-3 cells. The data set is described as follows: IL-1β induced pancreatic β-cell death, peptide treatment, propidium iodide / Hoechst 33342 staining. The class given is cell-based. Particulars: one single addition 1 μM, IL-1β 10 ng/ml every two days, 15 days. As for the experimental part:
We investigated the effects of the inventive L-TAT-IB(s) peptides on the promotion of β-cell apoptosis elicited by IL-1. βTC-3 cell cultures were incubated for 30 minutes with 1 μM of inventive L-TAT-IB1(s) peptides followed by 10 ng/mL of IL-1. A second addition of peptide (1 μM) was performed 24 hours later. Apoptotic cells were counted after two days of incubation with IL-1 β using propidium iodide (red stained cell are dead cells) and Hoechst 33342 (blue stained cell are cells with intact plasma membrane) nuclear staining.
Long term inhibition of IL-1 induced cells death was examined by treating βTC-3 cells as described above, except that incubation of the cells with the peptides and IL-1 β was sustained for 12 days. Additional peptides (1 μM) were added each day and additional IL-1 β (10 ng/mL) was added every 2 days. […] Taken together, these experiments provide evidence that inventive TAT-IB(s) peptides are biologically active molecules able to prevent the effects of JNK signaling on cell fate.
Inhibition of IL-1 β induced pancreatic β-cell death by the inventive D-TAT-IB1(s) peptide was analyzed. βTC-3 cells were incubated as described above for 30 minutes with one single addition of the indicated peptides (1, μM), then IL-1 (10 ng/ml) was added.
Apoptotic cells were then counted after two days of incubation with IL-1 β by use of Propidium Iodide and Hoechst 33342 nuclear staining. A minimum of 1,000 cells were counted for each experiment. Standard Error of the Means (SEM) are indicated, n=5.
Long term inhibition of IL-1P induced cell-death by the D-TAT-IB1 peptide was also analyzed. βTC-3 cells were incubated as above for 30 minutes with one single addition of the indicated peptides (1 μM), then IL-1 β (10 ng/ml) was added, followed by addition of the cytokine every two days. Apoptotic cells were then counted after 15 days of incubation with IL-1 by use of propidium iodide and Hoechst 33342 nuclear staining. […] A minimum of 1.000 cells were counted for each experiment.

Data set [1] relates to recombinant JNK1, JNK2, or JNK3 kinases. The data set is described as follows: Solid phase kinase assay, phosphorylation of c-Jun, ATF2 and Elk1 by recombinant JNKs. Type of data set: biochemical. To be noted: GST-Jun (aa 1-73), 0-250 μM dosage study. The protocol:
The effects of the peptides on JNKs-mediated phosphorylation of their target transcription factors were investigated in vitro. Recombinant and non activated JNK1, JNK2 and JNK3 were produced using a TRANSCRIPTION AND TRANSLATION rabbit reticulocyte lysate kit (Promega) and used in solid phase kinase assays with c-Jun, ATF2 and Elk1, either alone or fused to glutathione-S-transferase (GST), as substrates. Dose response studies were performed wherein inventive L-TAT or L-TAT-IB1(s) peptides (0-25 μM) were mixed with the recombinant JNK1, JNK2, or JNK3 kinases in reaction buffer (20 mM Tris-acetate, 1 mM EGTA, 10 mM p-nitrophenyl-phosphate (pNPP), 5 mM sodium pyrophosphate, 10 mM p-glycerophosphate, 1 mM dithiothreitol) for 20 minutes. The kinase reactions were then initiated by the addition of 10 mM MgCl2 and 5 pCi […] and 1 μg of either GST-Jun (aa 1-89), GST-AFT2 (aa 1-96) or GST-ELK1 (aa 307-428). GST-fusion proteins were purchased from Stratagene (La Jolla, Calif.).
Ten μL of glutathione-agarose beads were also added to the mixture. Reaction products were then separated by SDS-PAGE on a denaturing 10% polyacrylamide gel. Gels were dried and subsequently exposed to X-ray films (Kodak). […] The ability of D-TAT, inventive D-TAT-IB1(s) and inventive L-TAT-IB1(s) peptides (0-250 μM dosage study) to inhibit GST-Jun (aa 1-73) phosphorylation by recombinant JNK1, JNK2, and JNKS by were analyzed as described above. Overall, D-TAT-IB1(s) peptide decreased JNK-mediated phosphorylation of c-Jun, but at levels approximately 10-20 fold less efficiently than L-TAT-IB1(s).

Another data set has as its system βTC-3 cell cultures. Type of data set: cell-based. As for the experimental part:
The ability of the L- and D-enantiomeric forms of TAT and inventive TAT-IB1(s) peptides (“TAT-IB peptides”) to enter cells was evaluated. L-TAT, D-TAT, inventive L-TAT-IB1(s), and inventive D-TAT-IB1(s) peptides [SEQ ID NOs: 5, 6, 9 and 12, respectively] were labeled by N-terminal addition of a glycine residue conjugated to fluorescein. Labeled peptides (1 μM) were added to βTC-3 cell cultures, which were maintained as described in Example 3. At predetermined times cells were washed with PBS and fixed for five minutes in ice-cold methanol-acetone (1:1) before being examined under a fluorescence microscope. Fluorescein-labeled BSA (1 μM, 12 moles/mole BSA) was used as a control.
Little to no signal was present at 48 hours.
Fluorescent signals from these all-D retro-inverso peptides were still very strong 1 week later, and the signal was only slightly diminished at 2 weeks post treatment.

As for `CC(C)C[C@@H](NC(=O)[C@@H](Cc1ccccc1)NC(=O)[C@H]1CCCN1C(=O)[C@@H](CCC(N)=O)NC(=O)[C@H](NC(=O)[C@H]1CCCN1C(=O)[C@@H](CCCNC(=N)N)NC(=O)[C@@H](CO)NC(=O)[C@@H](CCC(N)=O)NC(=O)[C@H](N)CC(=O)O)C(C)C)C(=O)N[C@H](CC(N)=O)C(=O)N[C@H](CC(C)C)C(=O)N[C@@H](C(=O)N[C@@H](C(=O)N1CCC[C@@H]1C(=O)N[C@H](CCCNC(=N)N)C(=O)N[C@H](CCCCN)C(=O)N1CCC[C@@H]1C(=O)N[C@H](CCCNC(=N)N)C(=O)N1CCC[C@@H]1C(=O)N1CCC[C@@H]1C(=O)N[C@H](CCCNC(=N)N)C(=O)N[C@H](CCCNC(=N)N)C(=O)N[C@H](CCCNC(=N)N)C(=O)N[C@H](CCC(N)=O)C(=O)N[C@H](CCCNC(=N)N)C(=O)N[C@H](CCCNC(=N)N)C(=O)N[C@H](CCCCN)C(=O)N[C@H](CCCCN)C(=O)N[C@H](CCCNC(=N)N)C(=O)NCC(=O)O)[C@H](C)O)[C@H](C)O` [D-TAT-IB1(s)] (H-[dD][dQ][dS][dR][dP][dV][dQ][dP][dF][dL][dN][dL][dT][dT][dP][dR][dK][dP][dR][dP][dP][dR][dR][dR][dQ][dR][dR][dK][dK][dR]G-OH), the “long term inhibition of IL-1β induced cell-death” value in the data set with βTC-3 cells is reported as “able to confer long term (15 day) protection”. Further, the “efficiency in decreasing JNK-mediated phosphorylation of c-Jun, fold less efficient than L-TAT-IB1(s)” value in data set [1] is reported as 10-20 fold. In addition, in the data set on βTC-3 cell cultures, the “stability inside the cells” value is “extremely stable inside the cells”.
